# Values of other authors, collected in US20220233487A1, “PREPARATION FOR USE IN WEIGHT MANAGEMENT COMPRISING OMEGA-3 FATTY ACID SALTS AND BASIC AMINO ACIDS” (Evonik Operations GmbH, priority 2019, published 2022).
smiles,measurement,value
N=C(N)NCCC[C@H](N)C(=O)O [L-arginine],pKa-values: pKCOOH,pKCOOH: 2.0
